# Experimental data as given in PMC2781551, “Antibody Complementarity-Determining Regions (CDRs): A Bridge between Adaptive and Innate Immunity” (PLoS ONE, 2009).
# Experiments:
# [1] = system: C. albicans strain (CA-6); assay: In vitro candidacidal CFU assay; type: cell-based, Candida albicans; conditions: 100 µg/ml, CA-6 cells
# Experimental: The origin and characteristics of the highly virulent C. albicans strain (CA-6) used in this study have been previously described. The culture was maintained by serial passages on Sabouraud agar (BioMérieux, Lyon, France). The yeast cells were harvested by suspending a single colony in saline, washed twice, counted in a hemocytometer and adjusted to the desired concentration.
# The in vitro activity against CA-6 cells of mAb MoA synthetic CDRs at the concentration of 100 µg/ml was evaluated by a conventional Colony Forming Unit (CFU) assay as described elsewhere.
# TNF-α gene = TNF-α gene expression in PM (quantitative RT-PCR); type: cell-based, mouse (Balb/c); conditions: PM 1×10^6/ml, 10 µg/ml, qPCR normalized against GADPH, n = 5
# Experimental: (§1) After incubation, cells were lysed using Trizol reagent (Invitrogen, Carlsbad, CA), and total RNA was extracted. The reverse transcriptase (RT) reaction was performed using Moloney murine leukaemia virus reverse transcriptase (M-MLV RT), as described in the manufacturer's instructions (Invitrogen).
# (§2) TNF-α, TLR-4, and GADPH clones for use as standards were prepared by PCR from cDNA derived from PM and cloned into p-Drive vector (Qiagen, S.p.A., Milano, Italy). These were verified by sequence analysis. Plasmid DNA was diluted 10-fold and the starting concentration for the dilution series was 10^8 gene copies/µl.
# (§3) For each target gene, primers were selected using the Beacon Designer software (Bio-Rad, Hercules, CA). Real-time RT-PCR (quantitative RT-PCR) was performed in 96-well PCR plates using the SYBR green (all from BioRad). For real-time PCR reaction 100 ng/µl of reverse-transcribed RNA was used and cDNA was normalized according to GADPH as an internal NC gene. Amplification conditions were the same for TNF-α, TLR-4 and GADPH mRNAs assayed: 3 min at 95°C, 40 cycles of 10 s at 95°C and 30 s at 62°C. For the Melt Curve, the amplification condition was: 1 min at 50°C and 90 cycles of 10 s at 50°C. The experiments were performed using the iCycler IQ Multicolor Real-time PCR Detection System (BioRad).
# TLR-4 gene = TLR-4 gene expression in PM (quantitative RT-PCR); type: cell-based, mouse (Balb/c); conditions: PM 1×10^6/ml, 10 µg/ml, qPCR normalized against GADPH, n = 5
# Experimental: as §1, §2, §3
# murine splenocytes = assay: Cytokine production by unfractionated spleen cells (ELISA); type: cell-based, mouse (Balb/c); conditions: 10 µg/ml, 18 h, 10×10^6 cells/ml, ELISA of supernatants, data not shown
# Experimental: (§4) Unfractionated spleen cells (10×10^6/ml), recovered from Balb/c mice, were cultured in the presence or absence of mAb HuA and mAb MoA CDR peptides, LPS or NC (all 10 µg/ml) for 18 h in RPMI-1640 plus 10% FCS (complete medium) at 37°C and 5% CO2. After incubation, the supernatants were collected and tested for TNF-α and IL-6 levels by specific ELISA assays (Biosource, Camarillo, CA, USA). In selected experiments, PM (5×10^6/ml) were cultured as above described. After incubation, the supernatants were collected and tested for TNF-α and IL-6 levels by specific ELISA assays (Biosource). PM (5×10^6/ml) were cultured in the presence or absence of mouse VHCDR3, LPS, NC or SP (all at 10 µg/ml) for 1 or 18 h in complete medium at 37°C and 5% CO2. PM (5×10^6/ml) were cultured as above described in the presence or absence of wortmannin (4 nM) or SB203580 (0,2 µM) (both from Sigma). After incubation, the supernatants were collected and tested for TNF-α level by specific ELISA assays (Biosource). In selected experiments, PM (5×10^6/ml) were cultured in the presence or absence of VHCDR3, LPS, NC, SP and nine VHCDR3 alanine-substituted derivatives (all at 10 µg/ml) for 18 h in complete medium at 37°C and 5% CO2. After incubation, the supernatants were collected and tested for TNF-α level by specific ELISA assays (Biosource). PMN (5×10^6/ml) were cultured in the presence or absence of mAb MoA CDR peptides, LPS or NC (all 10 µg/ml) for 18 h in complete medium at 37°C and 5% CO2. After incubation, the supernatants were collected and tested for TNF-α and IL-6 levels by specific ELISA assays (Biosource). Cytokine titers were calculated by reference to standard curves, constructed with known amounts of recombinant cytokines.
# [2] = system: peritoneal murine macrophages (PM); assay: Cytokine production by peritoneal macrophages (ELISA); type: cell-based, mouse (Balb/c); conditions: 10 µg/ml, 5×10^6 cells/ml
# Experimental: DC and CD4^+ T cells were separated from spleens of inbred Balb/c mice using N-418 or L3T4 mAb-conjugated MicroBeads (Miltenyi Biotec, Bergisch Gladbach, Germany), and magnetic separation was performed according to the manufacturer's instruction. Peritoneal murine neutrophils (PMN) and macrophages (PM) were collected 18 h or 4 days, respectively, after the intraperitoneal injection of 1 ml endotoxin-free 10% thioglycolate solution (Difco).
# as §4
# PM = assay: Uptake of biotin-labelled peptide by PM (flow cytometry); conditions: 10 µg/ml, 37°C, FACScan, n = 7
# Experimental: DC, PM, PMN and CD4^+ T cells (all 1×10^6/ml) were incubated for 1 h with biotin-labelled mouse VHCDR3 (b-VHCDR3) or biotin-labelled NC (b-NC) (both 10 µg/ml) in complete medium at 37°C and 5% CO2. After incubation, cells were fixed with 4% formalin for 5 min at room temperature (RT), permeabilized with 0.1% saponin, washed with 0.1% saponin and incubated for 20 min on ice with FITC-labelled mAb to biotin (1 µl/test; Mouse IgG1 isotype) (Miltenyi Biotec), washed with 0.1% saponin and analyzed by FACScan flow cytometry (BD Biosciences). Data are reported as percentage of positive cells. In selected experiments, PM (1×10^6/ml) were incubated for different times with b-VHCDR3 or b-NC (both 10 µg/ml) in complete medium at 37°C and 5% CO2. After incubation, cells were fixed, permeabilized and washed as above and incubated for 20 min on ice with FITC-labelled mAb to biotin, washed with 0.1% saponin and analyzed by FACScan flow cytometry (BD Biosciences). Data are reported as mean fluorescence intensity (MFI) or percentage of positive cells. […] NC staining of cells with irrelevant Abs were used to obtain background fluorescence values.
# In selected experiments, PM were incubated for 1 h with b-VHCDR3 or b-NC (both 10 µg/ml) in complete medium at 37°C and 5% CO2. After incubation, cells were reacted with FITC-labelled mAb to biotin in the presence of Evans' Blue (StemCell Technologies Inc., Milan, Italy) as a counterstain, and subsequently examined under fluorescent light microscopy (Carl Zeiss, Jena, Germany).
sequence,measurement,setting,value
GQYGNLWFAY [VHCDR3],candidacidal effect in vitro,[1],ineffective
same,"TNF-α gene expression, 1 and 6 h",TNF-α gene; 1 and 6 h,significant increase
same,"TNF-α gene expression, 18 h",TNF-α gene; 18 h,rapid decline of gene expression
same,"TLR-4 gene expression, 1 h",TLR-4 gene; 1 h,significant increase
same,"TLR-4 gene expression, 6 h",TLR-4 gene; 6 h,declined
same,IL-6 production by splenocytes,murine splenocytes,increased production
same,TNF-α production by splenocytes,murine splenocytes,increased production
same,TNF-α production by PM after 1 h,"[2]; 1 h, n = 7",significant increase
same,TNF-α production by PM,"[2]; 18 h, P<0.05 vs untreated",significant up-regulation
same,IL-6 production by PM,"[2]; 18 h, P<0.05 vs untreated, n = 7",significant up-regulation
same,"kinetics of uptake by PM (MFI and percentage of positive cells), 6 and 18 h",PM; 6 and 18 h incubation,persisted
same,"kinetics of uptake by PM (MFI and percentage of positive cells), 1 h",PM; 1 h incubation,high level
same,"kinetics of uptake by PM (MFI and percentage of positive cells), 72 h",PM; 72 h incubation,negligible levels
